Measurements: patent publication US8283465B2, “Triazolopyridine compound, and action thereof as prolyl hydroxylase inhibitor or erythropoietin production-inducing agent” (Japan Tobacco Inc., priority 2009, dated 2012)
Where a name gives a salt, the structure may show the parent alone.

Tests used:
[1] = test system: human EPO production, Hep3B cells; assay: Human EPO production activity in Hep3B cells (EPO-ELISA of culture supernatant); format: cell-based; details: for EC50: Homo sapiens, 24 hr incubation, values consisting solely of numbers, read-out: EC50 (μM) in vitro, human EPO production activity; for production activity (%) at 30 μM in vitro, human EPO: 24 hr, values containing %, relative to maximum production
Procedure: The activity of the test compound on human EPO production was measured using Hep3B (AMC) established from human liver-derived cell line.
Hep3B cells were cultured in Eagle-MEM medium containing 10% fetal bovine serum, and the test compound was diluted with dimethyl sulfoxide (DMSO).
Hep3B cells were cultured in a 96-well plate, and a test compound was added at each concentration 24 hr later. After incubation at 37° C. for 24 hr, the culture supernatant was collected. The concentration of human EPO produced in the culture supernatant was measured using a human EPO-ELISA kit (manufactured by StemCell Technologies, 01630) according to the manufacturer's explanation, and the human EPO production activity (%) of the test compound was calculated based on the maximum value of production under the above conditions and the value without addition of the test compound. […] In these Tables, the values consisting solely of numbers show EC50 (μM) and those containing % show human EPO production activity (%) at […].

human PHD2 = target: T1, human PHD2 (Homo sapiens, UniProt Q9GZT9); assay: Measurement of human PHD inhibitory activity (TR-FRET, hydroxylation of HIF-1α partial peptide); format: biochemical; details: human PHD2 enzyme 1 nM, 25° C. 30 min, values consisting solely of numbers; read-out: IC50 (μM) in vitro, human PHD inhibitory activity
T1 construct: made in house; host or cells: Sf9 insect cells (baculovirus, pVL1393 vector)
Procedure: Human PHD2 was expressed in insect cell (Sf9 cell). […] The vector and baculovirus were cotransfected into Sf9, and human PHD2 expression baculovirus was isolated in Sf9. By using the virus, human PHD2-expressed cell was prepared. […] The cell lysate was flowed into a column filled with ANTI-FLAG M2 Affinity Gel Freezer Safe (SIGMA), washed, and the N-terminal FLAG-tag-added human PHD2 was eluted and collected.
VBC complex (VHL/Elongin B/Elongin C) was expressed in Escherichia coli (BL21(DE3)). […] After these expression vectors were transfected into Escherichia coli (BL21(DE3)), Escherichia coli was cultured at 37° C. in the medium containing IPTG. The collected Escherichia coli was disrupted by sonication and flowed into a column filled with Ni-NTA superflow (QIAGEN), washed, and the product was eluted and collected. The eluate was flowed into a column filled with Glutathione Sepharose 4B, washed, and the product was eluted and collected. […]
As for human PHD2 enzyme activity, hydroxylation of proline residue contained in the 19 residues of the partial peptide based on the sequence of HIF-1α as a substrate was measured by TR-FRET (Time-Resolved Fluorescence Resonance Energy Transfer) method.
A test compound and a substrate solution were added to a 96-well plate. The reaction was started by addition of a human PHD2 enzyme solution (final concentration 1 nM) to the reaction system. After incubation at 25° C. for 30 min, a stop solution containing EDTA was added, and a VBC complex solution containing europium (Eu) and Xlent was added, and the amount of hydroxylated proline residue was quantified by time-resolved fluorescence spectroscopy. The time-resolved fluorescence in each well was measured, and the human PHD inhibitory activity (%) of the test compound was calculated based on the values of enzyme non-addition well and test compound non-addition well.

T1 sequence (Q9GZT9 whole entry): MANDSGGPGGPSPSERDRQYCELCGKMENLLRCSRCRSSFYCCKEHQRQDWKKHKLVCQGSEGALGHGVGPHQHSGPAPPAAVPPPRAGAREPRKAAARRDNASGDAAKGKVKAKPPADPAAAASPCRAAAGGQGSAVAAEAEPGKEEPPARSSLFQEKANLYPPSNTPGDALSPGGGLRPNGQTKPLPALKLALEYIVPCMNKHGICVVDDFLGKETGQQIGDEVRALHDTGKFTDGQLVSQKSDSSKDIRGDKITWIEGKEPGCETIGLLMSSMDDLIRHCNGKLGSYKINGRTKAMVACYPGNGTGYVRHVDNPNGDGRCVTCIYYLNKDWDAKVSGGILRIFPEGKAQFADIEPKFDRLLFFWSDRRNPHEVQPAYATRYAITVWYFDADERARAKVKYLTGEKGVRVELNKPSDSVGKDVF

| Compound | EC50 [1] | IC50 (human PHD2) | production activity (%) at 30 μM in vitro, human EPO [1] |
| --- | --- | --- | --- |
| O=C(O)CNC(=O)c1c(O)cc(CCc2ccc(Cl)cc2)n2ncnc12 [Example 14, ({5-[2-(4-chlorophenyl)ethyl]-7-hydroxy[1,2,4]triazolo[1,5-a]pyridine-8-carbonyl}amino)acetic acid hydrochloride] | 5.1 µM | 0.23 µM |  |
| O=C(O)CNC(=O)c1c(O)cc(CCc2ccccc2)n2nc(C3CC3)nc12 [Example 15, [(2-cyclopropyl-7-hydroxy-5-phenethyl[1,2,4]triazolo[1,5-a]pyridine-8-carbonyl)amino]acetic acid hydrochloride] | 29.1 µM | 1.8 µM |  |
| O=C(O)CNC(=O)c1c(O)cc(CCc2ccc(C(F)(F)F)cc2)n2ncnc12 [Example 16, ({7-hydroxy-5-[2-(4-trifluoromethyl-phenyl)ethyl][1,2,4-]triazolo[1,5-a]pyridine-8-carbonyl}amino)acetic acid hydrochloride] | 7 µM | 0.32 µM |  |
| CC(C)CCc1cc(O)c(C(=O)NCC(=O)O)c2ncnn12 [Example 18, {[7-hydroxy-5-(3-methylbutyl)[1,2,4]triazolo[1,5-a]pyridine-8-carbonyl]amino}acetic acid hydrochloride] | 6.1 µM | 0.48 µM |  |
| O=C(O)CNC(=O)c1c(O)cc(CCc2cc(F)cc(F)c2)n2ncnc12 [Example 19, ({5-[2-(3,5-difluorophenyl)ethyl]-7-hydroxy[1,2,4]triazolo[1,5-a]pyridine-8-carbonyl}amino)acetic acid hydrochloride] | 6.6 µM | 0.26 µM |  |
| O=C(O)CNC(=O)c1c(O)cc(CC2CCCC2)n2ncnc12 [Example 20, [(5-cyclopentylmethyl-7-hydroxy[1,2,4]triazolo[1,5-a]pyridin-8-carbonyl)amino]acetic acid hydrochloride] | 6.6 µM | 0.59 µM |  |
| O=C(O)CNC(=O)c1c(O)cc(-c2cc(F)cc(F)c2)n2ncnc12 [Example 21, {[5-(3,5-difluorophenyl)-7-hydroxy[1,2,4]triazolo[1,5-a]pyridine-8-carbonyl]amino}acetic acid] | 12 µM | 0.25 µM |  |
| O=C(O)CNC(=O)c1c(O)cc(-c2ccc(F)c(Cl)c2)n2ncnc12 [Example 23, {[5-(3-chloro-4-fluorophenyl)-7-hydroxy[1,2,4]triazolo[1,5-a]pyridine-8-carbonyl]amino}acetic acid hydrochloride] | 7.8 µM | 0.19 µM |  |
| CC(C)(C)CCc1cc(O)c(C(=O)NCC(=O)O)c2ncnn12 [Example 24, {[5-(3,3-dimethylbutyl)-7-hydroxy[1,2,4]triazolo[1,5-a]pyridine-8-carbonyl]amino}acetic acid hydrochloride] | 5.4 µM | 0.57 µM |  |
| O=C(O)CNC(=O)c1c(O)cc(-c2ccc(F)c(F)c2)n2ncnc12 [Example 25, {[5-(3,4-difluorophenyl)-7-hydroxy[1,2,4]triazolo[1,5-a]pyridine-8-carbonyl]amino}acetic acid hydrochloride] | 14.1 µM | 0.25 µM |  |
| Cc1ccc(-c2cc(O)c(C(=O)NCC(=O)O)c3ncnn23)cc1 [Example 26, {[7-hydroxy-5-(p-tolyl)[1,2,4]triazolo[1,5-a]pyridine-8-carbonyl]amino}acetic acid hydrochloride] | 7.5 µM | 0.33 µM |  |
| O=C(O)CNC(=O)c1c(O)cc(CC2CCCCC2)n2ncnc12 [Example 28, [(5-cyclohexylmethyl-7-hydroxy[1,2,4]triazolo[1,5-a]pyridine-8-carbonyl)amino]acetic acid hydrochloride] | 13.9 µM | 1.38 µM |  |
| O=C(O)CNC(=O)c1c(O)cc(CCCc2ccccc2)n2ncnc12 [Example 29, {[7-hydroxy-5-(3-phenylpropyl)[1,2,4]triazolo[1,5-a]pyridine-8-carbonyl]amino}acetic acid] | 11.3 µM | 0.92 µM |  |
| O=C(O)CNC(=O)c1c(O)cc(C2CCCC2)n2ncnc12 [Example 30, [(5-cyclopentyl-7-hydroxy[1,2,4]triazolo[1,5-a]pyridine-8-carbonyl)amino]acetic acid hydrochloride] | 15.4 µM | 0.98 µM |  |
| O=C(O)CNC(=O)c1c(O)cc(-c2cc(F)cc(C(F)(F)F)c2)n2ncnc12 [Example 31, {[5-(3-fluoro-5-trifluoromethyl-phenyl)-7-hydroxy[1,2,4]triazolo[1,5-a]pyridine-8-carbonyl]amino}acetic acid hydrochloride] | 12.1 µM | 0.8 µM |  |
| O=C(O)CNC(=O)c1c(O)cc(-c2ccc(F)cc2)n2ncnc12 [Example 32, {[5-(4-fluorophenyl)-7-hydroxy[1,2,4]triazolo[1,5-a]pyridine-8-carbonyl]ammino}acetic acid hydrochloride] | 15.6 µM | 0.38 µM |  |
| O=C(O)CNC(=O)c1c(O)cc(-c2cccc(C(F)(F)F)c2)n2ncnc12 [Example 33, {[7-hydroxy-5-(3-trifluoromethyl-phhenyl)[1,2,4]triazolo[1,5-a]pyridine-8-carbonyl]ammino}acetic acid hydrochloride] | 10.1 µM | 0.46 µM |  |
| O=C(O)CNC(=O)c1c(O)cc(-c2cc(C(F)(F)F)ccc2F)n2ncnc12 [Example 34, {[5-(2-fluoro-5-trifluoromethyl-phenyl)-7-hydroxy[1,2,4]triazolo[1,5-a]pyridine-8-carbonyl]amino}acetic acid hydrochloride] | 15 µM | 0.43 µM |  |
| CC(C)c1cc(O)c(C(=O)NCC(=O)O)c2ncnn12 [Example 35, [(7-hydroxy-5-isopropyl[1,2,4]triazolo[1,5-a]pyridine-8-carbonyl)amino]acetic acid hydrochloride] |  | 0.88 µM | 43% |

Further lines, with some results ahead:

| EC50 [1] | IC50 (human PHD2) | Compound | production activity (%) at 30 μM in vitro, human EPO [1] |
| --- | --- | --- | --- |
| 10.5 µM | 0.72 µM | O=C(O)CNC(=O)c1c(O)cc(-c2cc(Cl)cc(C(F)(F)F)c2)n2ncnc12 [Example 36, {[5-(3-chloro-5-trifluoromethyl-phenyl)-7-hydroxy[1,2,4]triazolo[1,5-a]pyridine-8-carbonyl]amino}acetic acid hydrochloride] |  |
|  | 0.2 µM | N#Cc1cccc(-c2cc(O)c(C(=O)NCC(=O)O)c3ncnn23)c1 [Example 37, {[5-(3-cyanophenyl)-7-hydroxy[1,2,4]triazolo[1,5-a]pyridine-8-carbonyl]amino}acetic acid hydrochloride] | 11% |
| 8.7 µM | 0.59 µM | O=C(O)CNC(=O)c1c(O)cc(CCc2ccc(C3CC3)cc2)n2ncnc12 [Example 38, ({5-[2-(4-cyclopropyl-phenyl)ethyl]-7-hydroxy[1,2,4]trizazolo[1,5-a]pyridine-8-carbonyl}amino)acetic acid hydrochloride] |  |
| 22.3 µM | 1.25 µM | CC(C)(C)Cc1cc(O)c(C(=O)NCC(=O)O)c2ncnn12 [Example 39, {[5-(2,2-dimethylpropyl)-7-hydroxy[1,2,4]triazolo[1,5-a]pyridine-8-carbonyl]amino}acetic acid hydrochloride] |  |
| 17.7 µM | 0.87 µM | CCC(CC)c1cc(O)c(C(=O)NCC(=O)O)c2ncnn12 [Example 40, {[5-(1-ethylpropyl)-7-hydroxy[1,2,4]triazolo[1,5-a]pyridine-8-carbonyl]amino}acetic acid hydrochloride] |  |
| 9.1 µM | 0.26 µM | O=C(O)CNC(=O)c1c(O)cc(-c2cc(F)cc(Cl)c2)n2ncnc12 [Example 41, {[5-(3-chloro-5-fluorophenyl)-7-hydroxy[1,2,4]triazolo[1,5-a]pyridine-8-carbonyl]amino}acetic acid hydrochloride] |  |
| 14.2 µM | 0.24 µM | O=C(O)CNC(=O)c1c(O)cc(-c2cccc(F)c2)n2ncnc12 [Example 42, {[5-(3-fluorophenyl)-7-hydroxy[1,2,4]triazolo[1,5-a]pyridine-8-carbonyl]amino}acetic acid hydrochloride] |  |
| 23.6 µM | 0.93 µM | CC(C)Cc1cc(O)c(C(=O)NCC(=O)O)c2ncnn12 [Example 43, [(7-hydroxy-5-isobutyl[1,2,4]triazolo[1,5-a]pyridine-8-carbonyl)amino]acetic acid] |  |
